US20210220376A1, “ADDICTION TREATMENT OF AN ALCOHOL-CONSUMING PATIENT POPULATION” (Amygdala Neurosciences, Inc., priority 2018, published 2021)

Key:
hMAO-A = target: T1, hMAO-A (Homo sapiens, UniProt P21397); settings: read-out: IC50 hMAO-A; cited from earlier work
T1 sequence (P21397 1-527): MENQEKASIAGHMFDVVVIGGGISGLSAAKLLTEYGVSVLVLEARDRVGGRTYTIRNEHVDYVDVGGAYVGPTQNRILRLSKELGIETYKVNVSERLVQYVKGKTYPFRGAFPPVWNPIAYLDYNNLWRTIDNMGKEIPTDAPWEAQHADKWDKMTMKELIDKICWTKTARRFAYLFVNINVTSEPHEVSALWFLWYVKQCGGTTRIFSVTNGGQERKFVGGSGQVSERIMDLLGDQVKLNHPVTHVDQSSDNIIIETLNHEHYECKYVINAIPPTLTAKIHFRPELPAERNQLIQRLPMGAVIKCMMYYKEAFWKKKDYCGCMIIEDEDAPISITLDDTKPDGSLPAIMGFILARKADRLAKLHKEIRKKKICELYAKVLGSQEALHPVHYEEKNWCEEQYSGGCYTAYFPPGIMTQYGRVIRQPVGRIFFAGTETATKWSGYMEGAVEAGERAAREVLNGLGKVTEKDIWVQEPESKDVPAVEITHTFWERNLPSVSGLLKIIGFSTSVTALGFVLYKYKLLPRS

hMAO-B = target: T2, hMAO-B (Homo sapiens, UniProt P27338); settings: read-out: IC50 hMAO-B; cited from earlier work
T2 sequence (P27338 1-520): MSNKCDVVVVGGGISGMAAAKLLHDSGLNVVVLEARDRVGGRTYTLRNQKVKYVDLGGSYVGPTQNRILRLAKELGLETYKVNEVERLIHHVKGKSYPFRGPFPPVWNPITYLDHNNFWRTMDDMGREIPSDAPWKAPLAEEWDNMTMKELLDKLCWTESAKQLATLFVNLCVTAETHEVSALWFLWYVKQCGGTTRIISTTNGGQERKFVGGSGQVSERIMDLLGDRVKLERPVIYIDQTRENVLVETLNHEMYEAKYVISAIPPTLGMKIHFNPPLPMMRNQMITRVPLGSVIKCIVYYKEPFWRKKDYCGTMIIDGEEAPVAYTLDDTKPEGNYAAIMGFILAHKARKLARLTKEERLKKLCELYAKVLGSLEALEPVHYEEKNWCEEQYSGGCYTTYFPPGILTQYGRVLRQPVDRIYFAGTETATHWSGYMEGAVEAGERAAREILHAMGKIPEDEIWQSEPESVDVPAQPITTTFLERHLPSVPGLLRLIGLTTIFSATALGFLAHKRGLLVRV

[1] = Phase 1 study of compound (2) with ethanol: pharmacokinetics of compound (1) and breath alcohol
Description: Plasma concentrations of compound (1) and BrAC were summarized and listed by treatment, subject and timepoint. Pharmacokinetic parameters derived for compound (1) were also summarized and listed by treatment and subject. Pharmacokinetic parameters were estimated using a non-compartmental approach with a log-linear terminal phase assumption. The trapezoidal rule was used to estimate the area under the curve (linear trapezoidal linear interpolation) and the terminal phase will be estimated by maximizing the coefficient of determination estimated from the log-linear regression model. However, AUC0-∞, AUClast/∞, λz and t1/2 parameters were to be estimated for individual concentration-time profiles only when the terminal log-linear phase could be reliably characterized.
Proportionality analysis was done using a power model. The power model was defined as: […]
A linear model with ln-transformed dose as a continuous effect was fitted. A point estimate and a 90% CI was derived for the slope (β). The parameter could be considered to be dose proportional if the 90% confidence interval of the slope β was within [1+ln(0.8)/ln(r), 1+ln(1.25)/ln(r)], where r=the highest dose studied/the lowest dose (Smith et al., “Confidence interval criteria for assessment of dose proportionality.” Pharm Res. 17 (10):1278-83 (2000)).

[2] = test system: alcohol-consuming patient population; settings: 500 mg/day DSF; cited from earlier work

| Structure (SMILES) | IC50 (hMAO-A) [µM] | IC50 (hMAO-B) [µM] | other results |
| --- | --- | --- | --- |
| O=C(NCc1ccc(-c2cc[nH]c(=O)c2)cc1F)c1c(Cl)cccc1Cl [(13), 2,6-dichloro-N-(2-fluoro-4-(2-oxo-1,2-dihydropyridin-4-yl)benzyl)benzamide] | > 130 | > 130 | – |
| O=C(NCc1ccc(-c2cc[nH]c(=O)c2)cc1)c1c(Cl)cccc1Cl [Compound (1), 2,6-dichloro-N-[4-(2-oxo-1,2-dihydro-pyridin-4-yl)-benzyl]-benzamide] | > 130 | > 130 | dose proportionality of peak and overall exposure (power model) ([1]; 25 mg to 600 mg dose range): did not increase in a compound (2) dose-proportional manner; peak (Cmax) and overall (AUC) exposure to compound (1) ([1]; following a moderate-fat meal): increased with increasing dose of compound (2); Tmax ([1]; male, human, plasma, po): 3.5 to 5 h; half-life ([1]; male, human, plasma, po): 17 to 27 h |
| O=C(NCc1ccc(-c2cc(=O)[nH]cc2F)cc1)c1c(Cl)cccc1Cl [(14), 2,6-dichloro-N-(4-(5-fluoro-2-oxo-1,2-dihydropyridin-4-yl)benzyl)benzamide] | > 130 | > 130 | – |
| O=C(NCc1ccc(-c2cc[nH]c(=O)c2)cc1)c1c(F)cccc1F [(11), 2,6-difluoro-N-(4-(2-oxo-1,2-dihydropyridin-4-yl)benzyl)benzamide] | > 130 | > 130 | – |
| Cc1cccc(C)c1C(=O)NCc1ccc(-c2cc[nH]c(=O)c2)cc1 [(6), 2,6-dimethyl-N-(4-(2-oxo-1,2-dihydropyridin-4-yl)benzyl)benzamide] | > 130 | > 130 | – |
| Cc1cc(CNC(=O)c2c(Cl)cccc2Cl)ccc1-c1cc[nH]c(=O)c1 [(9), 2,6-dichloro-N-(3-methyl-4-(2-oxo-1,2-dihydropyridin-4-yl)benzyl)benzamide] | > 130 | > 130 | – |
| COCCOc1cc(Cl)c(C(=O)NCc2ccc(-c3cc[nH]c(=O)c3)cc2)c(Cl)c1 [(3), 2,6-dichloro-4-(2-methoxyethoxy)-N-(4-(2-oxo-1,2-dihydropyridin-4-yl)benzyl)benzamide] | > 130 | > 130 | – |
| O=C(NCc1ccc(-c2cc[nH]c(=O)c2)cc1)c1cccc(F)c1Cl [(4), 2-chloro-3-fluoro-N-(4-(2-oxo-1,2-dihydropyridin-4-yl)benzyl)benzamide] | > 130 | > 130 | – |
| O=C(NCc1ccc(-c2cc[nH]c(=O)c2)cc1)c1c(F)ccc(F)c1Cl [(8), 2-chloro-3,6-difluoro-N-(4-(2-oxo-1,2-dihydropyridin-4-yl)benzyl)benzamide] | > 130 | > 130 | – |
| Cc1cccc(Cl)c1C(=O)NCc1ccc(-c2cc[nH]c(=O)c2)cc1 [(5), 2-chloro-6-methyl-N-(4-(2-oxo-1,2-dihydropyridin-4-yl)benzyl)benzamide] | > 130 | > 130 | – |
| CCN(CC)C(=S)SSC(=S)N(CC)CC [DSF, Disulfuram] | – | – | outcome of safety study [2]: halted prematurely due to severity of DER |
| O=C(NCc1ccc(-c2cc[nH]c(=O)c2)cc1)c1c(F)cccc1Cl [(12), 2-chloro-6-fluoro-N-(4-(2-oxo-1,2-dihydropyridin-4-yl)benzyl)benzamide] | > 130 | > 130 | – |
| Cn1ccc(-c2ccc(CNC(=O)c3c(Cl)cccc3Cl)cc2)cc1=O [(10), 2,6-dichloro-N-(4-(1-methyl-2-oxo-1,2-dihydropyridin-4-yl)benzyl)benzamide] | > 130 | > 130 | – |
| Cc1cc(-c2ccc(CNC(=O)c3c(Cl)cccc3Cl)cc2)cc(=O)[nH]1 [(7), 2,6-dichloro-N-[4-(6-methyl-2-oxo-1,2-dihydro-pyridin-4-yl)-benzyl]-benzamide] | > 130 | > 130 | – |
